Assay results as given in patent publication US20050276794A1, “Composition and method for improving pancreatic islet cell survival” (priority 2004, published 2005).

Key:
isolated islet cells = assay type: cell-based
Description: Single islets were hand-picked from a Petri dish under microscopy and transferred to wells in a 96-well microculture plate. Micronutrients comprising alpha-tocopherol (50 μM), gamma-tocopherol (50 μM), and succinate (5 μM) were added to wells in various combinations, with regular media (no added micronutrients) used as control. Islet cell survival was indicated by maintenance of a more compact cell mass, with disruption of the cell mass indicating islet cell death detected by microscopic means. […] Samples are shown in duplicate (a—middle panel, and b—bottom panel), with the corresponding control in the top panel.

porcine islets = experiment: Islet morphology under anoxia (photomicrographs); assay type: cell-based; settings: 100 μM alone; up to 30 hrs anoxia; versus untreated islets
Description: Porcine islets were hand picked and placed in wells (one islet/well in triplicates) in a 96 micro plate. The islets were pre-incubated either in regular porcine culture media (M199) or in media supplemented with alpha-tocopherol 100 μM, gamma-tocopherol 100 μM or the combination of alpha-+gamma-tocopherol, 50 μM each prior to exposure to anoxia. Islets were then incubated for additional 30 hrs either under normoxia (control—95% Air, 5%CO2) or anoxia (95%N2, 5%CO2) in the presence or absence of the indicated vitamin E concentration. At four different time points (0 h, 12 h, 24 h and 30 h), islets were removed from the incubator, examined microscopically and photomicrographs were obtained. Panel A: Porcine islets cultured with regular porcine culture media (M199) under anoxia. As indicated by the photomicrographs, anoxia caused a significant change in to the islet morphology. […]
Porcine islets were isolated and then cultured for 48 hours according to standard protocols Islets were then cultured for an additional 18-24 hours in media in the presence or absence of alpha-tocopherol and gamma-tocopherol (50 μM each). […] Islet quality was assessed at time intervals ranging from 6 to 24 hours from the initiation of exposure to anoxia with Oxygen Consumption Rate (OCR), ATP, Caspase 3/7 activity measurements (all normalized to DNA), microphotography and transplantation into diabetic nude mice. […]

[1] = isolated islet cells in culture medium

Row | SMILES | protective benefit for preventing cell death in isolated islet cells (comparison) (isolated islet cells; compared with alpha-tocopherol or either tocopherol alone) | islet morphology after exposure to anoxia (porcine islets) | concentration at which increased benefit is noted (isolated islet cells; [1]) | concentration at which protective effect is exhibited (isolated islet cells; [1])
1 | Cc1c(O)cc2c(c1C)O[C@](C)(CCC[C@H](C)CCC[C@H](C)CCCC(C)C)CC2 [gamma-tocopherol] | more protective benefit | more normal morphology | – | –
2 | Cc1c(C)c2c(c(C)c1O)CC[C@@](C)(CCC[C@H](C)CCC[C@H](C)CCCC(C)C)O2 [alpha-tocopherol] | – | more normal morphology | at least 50 μM | at least 10 μM
